Reference: ChEMBL document CHEMBL1201862, “PubChem BioAssay data set” (2004)
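Test compounds were applied to cells in 96-well plates for 48 hours at 5 doses. Here, GI50 denotes the concentration required for 50% inhibition of growth.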 Calls of active or inactive are those of the source. No stated cut-off is given here; in the data, active = GI50 up to about 1.1 µM and inactive = higher.

Experiments:
Assay in all cases: inhibition of tumour cell growth, NCI panel, 48 h
[1] = system: BT-549
[2] = system: COLO 205
[3] = system: EKVX
[4] = system: HOP-92
[5] = system: K562
[6] = system: KM12
[7] = system: M14
[8] = system: NCI-H23
[9] = system: OVCAR-4
[10] = system: OVCAR-5
[11] = system: PC-3
[12] = system: RPMI-8226
[13] = system: SF-539
[14] = system: SK-MEL-2
[15] = system: SNB-19
[16] = system: SNB-75
[17] = system: UACC-257
[18] = system: UO-31
[19] = system: RXF 393
[20] = system: SF-268

Row | SMILES | GI50 [1] | GI50 [2] | GI50 [3] | GI50 [4] | GI50 [5] | GI50 [6] | GI50 [7] | GI50 [8] | GI50 [9] | GI50 [10] | GI50 [11] | GI50 [12] | GI50 [13] | GI50 [14] | GI50 [15] | GI50 [16] | GI50 [17] | GI50 [18] | GI50 [19] | GI50 [20]
1 | O=c1s[s+]([O-])c2ccccc12 (configuration not stated) | > 100 µM (inactive) | > 100 µM (inactive) | > 100 µM (inactive) | > 100 µM (inactive) | 45.7 µM (inactive) | > 100 µM (inactive) | > 100 µM (inactive) | > 100 µM (inactive) | > 100 µM (inactive) | > 100 µM (inactive) | > 100 µM (inactive) | 62.1 µM (inactive) | > 100 µM (inactive) | > 100 µM (inactive) | > 100 µM (inactive) | > 100 µM (inactive) | > 100 µM (inactive) | > 100 µM (inactive) |  | 
2 | O=[N+]([O-])c1ccc(Cl)cc1N/N=C/c1cccc2cccnc12 | > 100 µM (inactive) | > 100 µM (inactive) | > 100 µM (inactive) |  | 89.9 µM (inactive) | > 100 µM (inactive) | > 100 µM (inactive) | > 100 µM (inactive) | 92.7 µM (inactive) |  | > 100 µM (inactive) | 20.3 µM (inactive) | 95.1 µM (inactive) |  | 31.3 µM (inactive) | 59.2 µM (inactive) | > 100 µM (inactive) | 33.1 µM (inactive) | > 100 µM (inactive) | > 100 µM (inactive)
3 | COc1ccc2c(c1O)[C@@]13CCCC=C1[C@@H](C2)[N+](C)(C)CC3 | 46.7 µM (inactive) | 43.6 µM (inactive) | > 100 µM (inactive) | > 100 µM (inactive) | 57.8 µM (inactive) | > 100 µM (inactive) | > 100 µM (inactive) | > 100 µM (inactive) | > 100 µM (inactive) | > 100 µM (inactive) | > 100 µM (inactive) |  |  | > 100 µM (inactive) | > 100 µM (inactive) | 77.6 µM (inactive) | 79.1 µM (inactive) | > 100 µM (inactive) | > 100 µM (inactive) | > 100 µM (inactive)
4 | CCC1OC(=O)CC(O)C(C)C(OC2OC(C)C(O)C(N(C)C)C2O)C(CC=O)CC(C)C(=O)/C=C/C2(C)OC2C1C (configuration not stated) | 37.3 µM (inactive) | 19.6 µM (inactive) | 40.1 µM (inactive) |  | 12 µM (inactive) | 15.3 µM (inactive) | 18.6 µM (inactive) | 26.4 µM (inactive) | 55.1 µM (inactive) | 47.3 µM (inactive) | 47.9 µM (inactive) | 11.1 µM (inactive) | 25.2 µM (inactive) | 48.3 µM (inactive) | 44.4 µM (inactive) | 23.5 µM (inactive) | 17.3 µM (inactive) |  |  | 24.9 µM (inactive)
5 | [O-][S+](CCCl)c1c2ccccc2nc2ccccc12 (configuration not stated) |  | 36.9 µM (inactive) | > 100 µM (inactive) | > 100 µM (inactive) | > 100 µM (inactive) | 65.3 µM (inactive) | 75 µM (inactive) | 75 µM (inactive) | > 100 µM (inactive) | > 100 µM (inactive) | > 100 µM (inactive) |  | 31.9 µM (inactive) | > 100 µM (inactive) | > 100 µM (inactive) | > 100 µM (inactive) | > 100 µM (inactive) | > 100 µM (inactive) | > 100 µM (inactive) | > 100 µM (inactive)
6 | CN(N)c1cc(=O)[nH]c(=O)[nH]1 | 0.03 µM (active) |  | > 100 µM (inactive) |  | > 100 µM (inactive) | > 100 µM (inactive) |  | > 100 µM (inactive) | > 100 µM (inactive) |  | > 100 µM (inactive) | > 100 µM (inactive) | > 100 µM (inactive) |  | > 100 µM (inactive) |  | > 100 µM (inactive) |  |  | > 100 µM (inactive)
7 | c1cn(C23C4C5C6C4C2C6C53)cn1 (configuration not stated) | > 100 µM (inactive) | > 100 µM (inactive) | > 100 µM (inactive) |  | > 100 µM (inactive) | > 100 µM (inactive) | > 100 µM (inactive) | > 100 µM (inactive) |  | > 100 µM (inactive) | > 100 µM (inactive) | > 100 µM (inactive) | > 100 µM (inactive) | > 100 µM (inactive) | > 100 µM (inactive) | > 100 µM (inactive) | > 100 µM (inactive) |  |  | > 100 µM (inactive)
8 | O=C(NCc1ccc(Cl)c(Cl)c1)c1nc2ccccc2nc1NCc1ccc(Cl)c(Cl)c1 | > 100 µM (inactive) | > 100 µM (inactive) | > 100 µM (inactive) | > 100 µM (inactive) | > 100 µM (inactive) | > 100 µM (inactive) | > 100 µM (inactive) | > 100 µM (inactive) |  | > 100 µM (inactive) | > 100 µM (inactive) |  | > 100 µM (inactive) | > 100 µM (inactive) | > 100 µM (inactive) | > 100 µM (inactive) | > 100 µM (inactive) | > 100 µM (inactive) | > 100 µM (inactive) | > 100 µM (inactive)
9 | C=C(C)C(=O)O[C@H]1CC2=CC(CC(C)=C[C@H]3OC(=O)C(=C)C13)OC2=O (some centres not stated) | 16.3 µM (inactive) | 14.5 µM (inactive) | 20.6 µM (inactive) | 16.4 µM (inactive) | 7.74 µM (inactive) | 20.3 µM (inactive) | 29.4 µM (inactive) | 39.3 µM (inactive) | 34.8 µM (inactive) | 33.7 µM (inactive) | 23 µM (inactive) | 2.93 µM (inactive) | 29.7 µM (inactive) | 22.1 µM (inactive) | > 100 µM (inactive) | > 100 µM (inactive) | 25.5 µM (inactive) | > 10 µM (inactive) |  | 20.6 µM (inactive)
10 | CCOP(=O)(/C=C/n1ccc(=O)[nH]c1=O)OCC | > 100 µM (inactive) | > 100 µM (inactive) | > 100 µM (inactive) |  | > 100 µM (inactive) | > 100 µM (inactive) | > 100 µM (inactive) | > 100 µM (inactive) | > 100 µM (inactive) | > 100 µM (inactive) | > 100 µM (inactive) | > 100 µM (inactive) | > 100 µM (inactive) | > 100 µM (inactive) | > 100 µM (inactive) | > 100 µM (inactive) | > 100 µM (inactive) |  | > 100 µM (inactive) | > 100 µM (inactive)
11 | O=C(c1cccc2ccccc12)C1S(=O)(=O)OCCOS1(=O)=O | > 100 µM (inactive) | > 100 µM (inactive) | > 100 µM (inactive) |  | > 100 µM (inactive) | > 100 µM (inactive) | > 100 µM (inactive) | > 100 µM (inactive) | > 100 µM (inactive) | > 100 µM (inactive) | > 100 µM (inactive) | > 100 µM (inactive) |  | > 100 µM (inactive) | > 100 µM (inactive) |  |  | > 100 µM (inactive) |  | 
12 | COc1cc(CC2CC(c3ccc4c(c3)OCO4)OC2=O)cc(OC)c1OC (configuration not stated) |  | > 100 µM (inactive) | 65.9 µM (inactive) | 13.6 µM (inactive) | 71.8 µM (inactive) | > 100 µM (inactive) | > 100 µM (inactive) | > 100 µM (inactive) |  | > 100 µM (inactive) | 91.6 µM (inactive) | 25.1 µM (inactive) | > 100 µM (inactive) |  | > 100 µM (inactive) | > 100 µM (inactive) | 77.4 µM (inactive) | 19.4 µM (inactive) | > 100 µM (inactive) | > 100 µM (inactive)
13 | O=[N+]([O-])/C(C(Cl)=C(Cl)Cl)=C(\NCc1ccccc1)Sc1ccccc1 | 17.3 µM (inactive) | 18.7 µM (inactive) | 38.4 µM (inactive) |  | 63 µM (inactive) | 16.5 µM (inactive) | 32.8 µM (inactive) | 20.5 µM (inactive) | 28.6 µM (inactive) | 47 µM (inactive) | 27.5 µM (inactive) | 34.7 µM (inactive) | 19.9 µM (inactive) | 25.1 µM (inactive) | 41.2 µM (inactive) | 28.2 µM (inactive) | 33.9 µM (inactive) | 17.2 µM (inactive) |  | 24.3 µM (inactive)
14 | C=CCN(C(=O)OC(C)(C)C)C1=CC2C(C)=CN(S(=O)(=O)c3ccccc3)C2C(OCc2ccccc2)=C1 (configuration not stated) | > 100 µM (inactive) | > 100 µM (inactive) | > 100 µM (inactive) |  | 7.59 µM (inactive) | > 100 µM (inactive) | > 100 µM (inactive) | > 100 µM (inactive) | > 100 µM (inactive) | > 100 µM (inactive) | > 100 µM (inactive) | > 100 µM (inactive) |  | > 100 µM (inactive) |  | 6.18 µM (inactive) | > 100 µM (inactive) | > 100 µM (inactive) | 36.1 µM (inactive) | 
15 | CCOC(=O)c1[nH]c2ccccc2c1C(=O)C[C@H](NC(=O)C(F)(F)F)C(=O)OC | > 100 µM (inactive) | > 100 µM (inactive) | > 100 µM (inactive) | > 100 µM (inactive) | > 100 µM (inactive) | > 100 µM (inactive) | > 100 µM (inactive) | > 100 µM (inactive) | > 100 µM (inactive) | > 100 µM (inactive) | > 100 µM (inactive) | > 100 µM (inactive) | > 100 µM (inactive) | > 100 µM (inactive) | > 100 µM (inactive) | > 100 µM (inactive) | > 100 µM (inactive) | 75.3 µM (inactive) |  | > 100 µM (inactive)
16 | N#C[C@H]1Nc2ccccc2[C@@H](O)C1O (some centres not stated) |  | > 100 µM (inactive) | > 100 µM (inactive) | > 100 µM (inactive) | > 100 µM (inactive) | > 100 µM (inactive) | > 100 µM (inactive) | > 100 µM (inactive) | > 100 µM (inactive) | > 100 µM (inactive) | > 100 µM (inactive) | > 100 µM (inactive) | > 100 µM (inactive) | > 100 µM (inactive) |  | > 100 µM (inactive) | > 100 µM (inactive) |  | > 100 µM (inactive) | > 100 µM (inactive)
